Assay results taken from patent publication US7585839B2, “Medical uses of intercellular communication facilitating compounds” (Zealand Pharma A/S, priority 2001, dated 2009).

Key:
ROS 17/2.8 cells = test: Intercellular calcium waves after mechanical stimulation, ROS 17/2.8 cells; type: cell-based, rat; conditions: 48 hours hypoxia 3-6% O2; 10^−8 M, 10 minutes; 2.2 cells before
Protocol: ROS 17/2.8 cells: Cells were cultured in 100 mm dishes at 37° C. with 5% CO2 and medium change every 2-3 days. ROS medium (all reagents obtained from Life Technologies): MEM (Cat.No. 31095) supplemented with 10% heat-inactivated calf serum (Cat.No. 16170), 1% NEAA (Cat.No. 11140), 1% Sodium Pyruvate (Cat.No. 11360), 1% L-Glutamine (Cat.No. 25030) and 0.1% Penicillin/Streptomycin (Cat,No. 15140). For video imaging experiments, cells were plated on coverslips at 2-3×10^5 cells/coverslip and cultured for 2-3 days before use.
The cells cultured on coverslips were loaded with 5 μM fura-2-AM (Molecular Probes, Cat.No. F-1221), for 30 minutes at 37° C., and incubated in fresh medium for 20 minutes. Coverslips were then affixed to a PDMI-2 culture chamber (Medical Systems Corp.), maintained at 37° C. with superfused CO2, on a Zeiss Axiovert microscope. Intercellular calcium waves were induced by mechanical stimulation of a single cell using a borosilicate glass micro pipette affixed to an Eppendorf 5171 micromanipulator. Imaging was performed using a MetaMorph imaging system (Universal Imaging). The excitation light (340 and 380 nm) was provided by a monochromator (T.I.L.L. Photonics GmbH). Images were acquired with an intensified CCD camera (Dage MTI) and digitized with a Matrox MVP image processing board.

[1] = system: calcium-induced arrythmias; test: Calcium-induced arrhythmia model in mice (CaCl2-induced 2nd degree AV-block); type: in vivo; conditions: mouse, in vivo
Protocol: The antiarrhythmic effects of compounds of this invention were tested in an in vivo model of calcium-induced arrythmias according to the model of Lynch et al.^[37]. […]. Commercial solutions of hypnorm and midazolam were diluted 1:1 in distilled water and one part diluted Hypnorm® is mixed with one part diluted midazolam.
The anaesthesia was induced by s.c. administration in a dose of 0.05-0.075 μl/10 gram mouse. An i.v. cannula was inserted into the tail vein. The lead II ECG signal was recorded continuously by positioning of a stainless steel ECG electrodes on the right forelimb and on the left hind limb. The ground electrode was placed on the right hind limb. The signal was amplified (×5.000-10.000) and filtered (0.1-150 Hz) via a Hugo Sachs Electronic model 689 ECG module. The analogue signal was digitised via a 12 bit data acquisition board (Data Translation model DT321) and sampled at 1000 Hz using the Notocord HEM 3.1 software for Windows NT. After a 10-min equilibration period, the test sample of drug was injected into the tail vein. Mice pre-treated with vehicle were tested as a measure of the control level in untreated animals. The injection volume was 100 μl in all experiments. Infusion of CaCl2 (30 mg/ml, 0.1 ml/min≈100 mg/kg/min (calciumchlorid-2-hydrat, Riedel-de Haën, Germany)) was started 3 min after i.v. administration of drug or vehicle.
The time lag to onset of 2nd degree AV-block was determined as the time from the start of CaCl2 infusion until the first arrhythmic event occured. An event of 2nd degree AV-block was defined as intermittent failure of the AV conduction characterised by a P-wave without the concomitant QRS complex.
Responses were expressed relative to the time until 2nd degree AV-block occurred in vehicle treated mice.

human osteoblastic cells = test: DDT-induced uncoupling in human osteoblast cells, Lucifer Yellow microinjection; type: cell-based; conditions: after DDT 13 μM 60 minutes; 10^−8 mol/l, 10 minutes; p<0.01
Protocol: Human osteoblast cells: Cells were isolated from human bone marrow obtained by puncture of the posterior iliac spine of healthy volunteers (aged 20-36): 10-15 ml marrow material was collected in 15 ml PBS+Ca, Mg (Life Technologies, Cat.No. 14040) with 100 U/ml Heparin (Sigma, Cat.No. H-3149). The mononuclear fraction of the marrow was isolated on a Lymphoprep gradient (Nycomed Pharma, Cat.No. 1001967), by centrifugation at 2200 rpm for 30 min. After harvesting, the mononuclear fraction was washed once with culture medium and centrifuged at 1800 rpm for 10 min. Subsequently cells were counted and plated in culture medium at 8×10^6 cells/100 mm dish. hOB medium (all reagents obtained from Life Technologies): MEM w/o Phenol Red w/Glutamax (Cat.No. 041-93013) supplemented with 10% heat inactivated fetal calf serum (Cat.No. 10106) and 0.1% Penicillin/Streptomycin (Cat.No. 15140). Medium was changed the following day and the cells were cultured at 37° C. in 5%CO2 with medium change every 7 days. After 3-4 weeks of culture the cells had reached 70% confluence. The medium was then supplemented with 100 nM Dexamethasone (Sigma, Cat.No. D-4902) for 7 days. Cells were then plated for video imaging experiments: a 25 mm #1 glass coverslip was placed in a 35 mm dish (or each well of a 6-well multidish), cells were plated at 2.5×10^5 cells/coverslip and cultured for 2-3 days before use. […]

[2] = system: alkaline phosphatase (ALP) activity of human osteoblasts; test: Alkaline phosphatase assay, human osteoblasts; type: cell-based
Protocol: Day 1: Cells were plated in 96-well plates at a conc. of 8000 cells/well (hOB) or 3000 cells/well (ROS) in 200 μl normal culture medium.
Day 2: Medium was changed on the cells.
Day 4: (Day 3 for ROS): Cells were washed with 200 μl MEM, 0.1% BSA (Sigma, Cat.No. A-9418).
Day 8: (Day 5 for ROS): Alkaline Phosphatase (ALP) assay is a colorimetric endpoint method for measuring enzyme activity, and was done using Alkaline Phosphatase Kit (Sigma, Cat.No. 104-LL): Cells were washed once with 200 μl PBS+Ca,Mg. 100μl Alkaline Buffer Solution was added to each well and plate was placed at 37° C. for 10 min. 100 μl Substrate Solution was added to each well and plate was incubated at 37° C. for 30 min. 100 μl 2.0 N NaOH was added to each well to stop the reaction. Absorbance was measured using a plate reader at 405 nm.

What does the source list for “Ac-D-Tyr-D-Pro-D-4Hyp-Gly-D-Ala-Gly-NH2 [Compound 2]”?
average number of cells in the calcium wave (ROS 17/2.8 cells): 5.4 cells; CaCl2 mice In vivo, % [1]: 65 +/− 7%; cell-to-cell dye transfer, median number of cells (human osteoblastic cells): 8.3 cells; stimulation of ALP activity during hypoxia, greater than during normoxia ([2]; 5% O2 four days, 10^−11 to 10^−8 mol/l): about 15%; ALP activity ([2]; normal culture conditions, 1×10^−13 to 1×10^−6): increased ALP activity at most of the concentrations tested
